Measurements: patent US9376418B2, “Substituted pyridine spleen tyrosine kinase (SYK) inhibitors” (Merck Sharp & Dohme Corp., priority 2012, dated 2016)

Experiments:
[1] = target: T1, recombinant human GST-SYK (Homo sapiens, UniProt P43405); experiment: Homogeneous Time-Resolved Fluorescence (HTRF) assay for the recombinant human Syk enzyme; format: biochemical; details: HTRF assay, recombinant human GST-SYK; IC50 given as class symbols; read-out: rhSYK Activity
T1 construct: purchased Carna Biosciences 08-176
Summary of the method: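 HTRF read-out: Europium-anti-phosphotyrosine antibody (2 nM) plus SA-APC (70 nM) in EDTA-containing buffer quenched the reaction, and signal was read after 30 minutes. Kinase step used […], 250 nM biotinylated peptide, 25 μM ATP, 5 mM Mg, 45′ at room temperature.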

PGD2 = details: dosed intranasally, phase I/II study, allergic rhinitis; cited from earlier work
[2] = phase II clinical trial, allergic rhinitis; cited from earlier work

| IC50 [1] [nM] | Compound | further results |
| --- | --- | --- |
| < 100 | Cc1cc(Nc2nccc(C(F)(F)F)n2)cc(-c2ccc(NC(C)(CC(F)(F)F)c3nnn[nH]3)nc2)c1 (stereo not drawn) [Example 18.7, N-[3-methyl-5-(6-{[4,4,4-trifluoro-2-(1H-tetrazol-5-yl)butan-2-yl]amino}pyridin-3-yl)phenyl]-4-(trifluoromethyl)pyrimidin-2-amine] | – |
| < 100 | Cc1cc(Nc2nccc(C(F)(F)F)n2)cc(-c2ccc(NC(C)(C)c3nnn[nH]3)nc2)c1 [Example 18.8, N-[3-methyl-5-(6-{[1-methyl-1-(1H-tetrazol-5-yl)ethyl]amino}pyridin-3-yl)phenyl]-4-(trifluoromethyl)pyrimidin-2-amine] | – |
| < 100 | Cc1cc(Nc2nccc(C(F)(F)F)n2)cc(-c2ccc(NC(C)(c3nnn[nH]3)C(C)(C)C)nc2)c1 (stereo not drawn) [Example 18.9, N-[3-methyl-5-(6-{[1,2,2-trimethyl-1-(1H-tetrazol-5-yl)propyl]amino}pyridin-3-yl)phenyl]-4-(trifluoromethyl)pyrimidin-2-amine] | – |
| < 100 | Cc1cc(Nc2nccc(C(F)(F)F)n2)cc(-c2ccc(NC(C)(C)c3nc(=O)o[nH]3)nc2)c1 [Example 18.10, 3-(2-{[5-(3-Methyl-5-{[4-(trifluoromethyl)pyrimidin-2-yl]amino}phenyl)pyridin-2-yl]amino}propan-2-yl)-1,2,4-oxadiazol-5(4H)-one] | – |
| < 100 | Cc1cc(Nc2nccc(C(F)(F)F)n2)cc(-c2ccc(-c3noc(=O)[nH]3)nc2)c1 [Example 18.11] | – |
| < 100 | Cc1cc(Nc2nccc(C(F)(F)F)n2)cc(-c2ccc(C(NC(N)=O)(C3CC3)C3CC3)nc2)c1 [Example 19.1, 1-{Dicyclopropyl[5-(3-methyl-5-{[4-(trifluoromethyl)pyrimidin-2-yl]amino}phenyl)pyridin-2-yl]methyl}urea] | – |
| < 100 | Cc1cc(Nc2nccc(C(C)(F)F)n2)cc(-c2cccnc2)c1 [Example 20.1, 4-(1,1-Difluoroethyl)-N-[3-methyl-5-(pyridin-3-yl)phenyl]pyrimidin-2-amine] | – |
| < 100 | Cc1cc(Nc2nccc(OC3CCNCC3)n2)cc(-c2cccnc2)c1 [Example 20.2, N-[3-methyl-5-(pyridin-3-yl)phenyl]-4-(piperidin-4-yloxy)pyrimidin-2-amine] | – |
| 100 to 1000 | Cc1cc(Nc2ncc(Cl)c(C(F)(F)F)n2)cc(-c2cccnc2)c1 [Example 20.3] | – |
| < 100 | Cc1cc(Nc2nccc(C(F)(F)F)n2)cc(-c2ccc(S(=O)(=O)NCC(=O)O)nc2)c1 [Example 21.1, N-{[5-(3-methyl-5-{[4-(trifluoromethyl)pyrimidin-2-yl]amino}phenyl)pyridin-2-yl]sulfonyl}glycine] | – |
| 100 to 1000 | Cc1cc(Nc2nccc(C(F)(F)F)n2)cc(-c2ccc(S(=O)(=O)NC3CC3)nc2)c1 [Example 21.2, N-cyclopropyl-5-(3-methyl-5-{[4-(trifluoromethyl)pyrimidin-2-yl]amino}phenyl)pyridine-2-sulfonamide] | – |
| < 100 | Cc1cc(Nc2nccc(C(F)(F)F)n2)cc(-c2ccc(S(=O)(=O)NC3CCNC3=O)nc2)c1 (stereo not drawn) [Example 21.3, 5-(3-methyl-5-{[4-(trifluoromethyl)pyrimidin-2-yl]amino}phenyl)-N-(2-oxopyrrolidin-3-yl)pyridine-2-sulfonamide] | – |
| < 100 | Cc1cc(Nc2nccc(C(F)(F)F)n2)cc(-c2ccc(S(N)(=O)=O)nc2)c1 [Example 21.4, 5-(3-methyl-5-{[4-(trifluoromethyl)pyrimidin-2-yl]amino}phenyl)pyridine-2-sulfonamide] | – |
| 100 to 1000 | CCOC(=O)/C=C/c1ccc(-c2cc(C)cc(Nc3nccc(C(F)(F)F)n3)c2)cn1 [Example 22.1, Ethyl-3-[5-(3-methyl-5-{[4-(trifluoromethyl)pyrimidin-2-yl]amino}phenyl)pyridin-2-yl]prop-2-enoate] | – |
| < 100 | Cc1cc(Nc2nccc(C(F)(F)F)n2)cc(-c2ccc(/C=C/C(=O)O)nc2)c1 [Example 22.2, 3-[5-(3-Methyl-5-{[4-(trifluoromethyl)pyrimidin-2-yl]amino}phenyl)pyridin-2-yl]prop-2-enoic acid] | – |
| < 100 | Cc1cc(Nc2nccc(C(F)(F)F)n2)cc(-c2ccc(CC(C)(C)C(=O)O)nc2)c1 [Example 22.3, 2,2-Dimethyl-3-[5-(3-methyl-5-{[4-(trifluoromethyl)pyrimidin-2-yl]amino}phenyl)pyridin-2-yl]propanic acid] | – |
| < 100 | Cc1cc(Nc2nccc(C(F)(F)F)n2)cc(-c2ccc(C(O)C(C)(C)C(=O)O)nc2)c1 (stereo not drawn) [Example 23.1, 3-Hydroxy-2,2-dimethyl-3-[5-(3-methyl-5-{[4-(trifluoromethyl)pyrimidin-2-yl]amino}phenyl)pyridin-2-yl]propanoic acid] | – |
| < 100 | CCOC(=O)C(F)(F)C(O)c1ccc(-c2cc(C)cc(Nc3nccc(C(F)(F)F)n3)c2)cn1 (stereo not drawn) [Example 24.1, Ethyl 2,2-difluoro-3-hydroxy-3-[5-(3-methyl-5-{[4-(trifluoromethyl)pyrimidin-2-yl]amino}phenyl)pyridin-2-yl]propanoate] | – |
| < 100 | Cc1cc(Nc2nccc(C(F)(F)F)n2)cc(-c2ccc(C(O)C(F)(F)C(=O)O)nc2)c1 (stereo not drawn) [Example 24.2, 2,2-Difluoro-3-hydroxy-3-[5-(3-methyl-5-{[4-(trifluoromethyl)pyrimidin-2-yl]amino}phenyl)pyridin-2-yl]propanoic acid] | – |
| < 100 | Cc1cc(Nc2nccc(C(F)(F)F)n2)cc(-c2ccc(CC(F)(F)C(=O)O)nc2)c1 [Example 24.3, 2,2-Difluoro-3-[5-(3-methyl-5-{[4-(trifluoromethyl)pyrimidin-2-yl]amino}phenyl)pyridin-2-yl]propanoic acid] | – |
| < 100 | Cc1cc(Nc2nccc(C(F)(F)F)n2)cc(-c2ccc(/C=C(/F)C(=O)O)nc2)c1 [Example 24.4, (2E)-2-Fluoro-3-[5-(3-methyl-5-{[4-(trifluoromethyl)pyrimidin-2-yl]amino}phenyl)pyridin-2-yl]prop-2-enoic acid] | – |
| 100 to 1000 | COC(=O)Cn1cc(-c2ccc(-c3cc(C)cc(Nc4nccc(C(F)(F)F)n4)c3)cn2)nn1 [Example 25.1, Methyl {4-[5-(3-methyl-5-{[4-(trifluoromethyl)pyrimidin-2-yl]amino}phenyl)pyridin-2-yl]-1H-1,2,3-triazol-1-yl}acetate] | – |
| < 100 | Cc1cc(Nc2nccc(C(F)(F)F)n2)cc(-c2ccc(-c3cn(CC(=O)O)nn3)nc2)c1 [Example 25.2, {4-[5-(3-Methyl-5-{[4-(trifluoromethyl)pyrimidin-2-yl]amino}phenyl)pyridin-2-yl]-1H-1,2,3-triazol-1-yl}acetic acid] | – |
| 100 to 1000 | CC(O)c1ccc(-c2cc(Nc3nccc(C(F)(F)F)n3)cc(C(=O)O)c2)cn1 (stereo not drawn) [Example 26.1, 3-[6-(1-Hydroxyethyl)pyridin-3-yl]-5-{[4-(trifluoromethyl)pyrimidin-2-yl]amino}benzoic acid] | – |
| – | Oc1cccc(Nc2ncc(F)c(Nc3cccc(O)c3)n2)c1 [Example R112] | change in PGD2 (PGD2): statistically significant decrease; clinical safety (PGD2): safe across a range of indicators; efficacy versus placebo [2]: lack of efficacy |
